Entries after “also recorded” stand apart in the source; their conditions may differ.
Key:
[1] = test system: loss of the righting reflex (RR) in mice; assay: Loss of the righting reflex assay in mice; assay type: in vivo, mouse; details: 10 nmol, icv
Method: All of the experimental procedures adopted in the in vivo studies comply with the European Directive 2010/63/EU on protecting animals used for scientific purposes and Italian Legislative Decree no. 26 of March 4, 2014. These experiments were approved by the Animal Welfare Body of the University of Ferrara and by the Ministry of Health (authorization number 677/2024-PR). In vivo studies have been reported following ARRIVE guidelines. All experiments were conducted with mice bred and housed in the University of Ferrara’s animal facility under specific pathogen-free conditions. All mice were housed in cages with individual ventilation, with a constant temperature of 21 °C, 60% humidity, and a 12 h light/dark cycle. Food and water were provided ad libitum. CD-1 male and female mice, aged 2 to 4 months, were used. Details about the generation of NOP(−/−) and NOP(+/+) mice have been published previously; , these mice have been backcrossed on CD-1 strain in our laboratories. NOP(+/+) and NOP(−/−) littermates were obtained by mating with NOP(±) mice. All mice were genotyped using the polymerase chain reaction previously described. All mice were used only once. The RR assay was performed as previously described. […] Diazepam 15 mg/kg was injected ip. When the animals lost RR, they were placed in a plastic cage, and the time was recorded by an expert observer, blind to drug treatments and/or genotype. Animals were judged to have regained the RR response when they could correct themselves three times within 30 s. Sleeping time is defined as the amount of time between the loss and regaining of the RR; it was rounded to the nearest minute.
(§1) Concentration-response curves to agonists were analyzed by a four-parameter logistic nonlinear regression model: Effect = baseline + (E max – baseline)/(1 + 10^((logEC50–log[ligand])slope)). […] Experimental data were expressed as mean ± sem of at least 5 experiments. Potency values were expressed as the mean and CL95%. In vitro E max values were analyzed by one-way ANOVA, while in vivo latency data were evaluated by one-way ANOVA followed by Dunnett’s post hoc test. The proportion of mice losing the righting reflex was compared by Fisher’s exact test performed on raw data. GraphPad Prism 10.0 software was used for all of the analyses. The terminology employed is consistent with the International Union of Basic and Clinical Pharmacology (IUPHAR) recommendations. ,

[2] = test system: mouse vas deferens from NOP(−/−) mice; assay: Electrically stimulated mouse vas deferens bioassay, NOP(−/−) tissues; details: mVD from CD-1 NOP(−/−) mice; 5 experiments
Method: (§2) This study was approved by the Animal Welfare Body of the University of Ferrara and by the Italian Ministry of Health (authorization number CBCC2.N.BXI). Experiments were performed on an isolated mouse vas deferens. All experiments were conducted with mice bred and housed in the University of Ferrara’s animal facility under specific pathogen-free conditions (SPF). All mice were housed in cages with individual ventilation, with a constant temperature of 21 °C, 60% humidity, and a 12 h light/dark cycle. Food and water were provided ad libitum. CD-1 NOP(+/+) and CD-1 NOP(−/−) male mice, aged 9 to 12 months, were used. Animals were sacrificed on the day of the experiment with CO2 overdose. Bioassay experiments were performed as previously described. The tissues were suspended in 5 mL organ bath containing Krebs solution (NaCl 118.5 […]). The Krebs solution was oxygenated with 95% O2 and 5% CO2 and the temperature set at 33 °C with a resting tension of 0.3 g applied to the tissues. Tissues were stimulated through two platinum electrodes with a supramaximal rectangular pulse of 1 ms duration, 0.05 Hz frequency, and 80 V of amplitude. The electrically evoked contractions were measured isotonically by means of Basile strain gauge transducers (Basile, IT) and a recorder with a Power Lab 8 instrument (ADInstruments, CO, U.S.). Following an equilibration period of approximately 60 min, the contractions induced by electrical field stimulation were stable. At this time, cumulative concentration response curves were carried out.
Concentration-response curves to agonists were analyzed by a four-parameter logistic nonlinear regression model: Effect = baseline + (E max – baseline)/(1 + 10^((logEC50–log[ligand])slope)). […] Experimental data were expressed as mean ± sem of at least 5 experiments. Potency values were expressed as the mean and CL95%. In vitro E max values were analyzed by one-way ANOVA, while in vivo latency data were evaluated by one-way ANOVA followed by Dunnett’s post hoc test. […]

[3] = test system: mouse vas deferens from NOP(+/+) mice; assay: Electrically stimulated mouse vas deferens bioassay, NOP(+/+) tissues
Method: as §2, §1

sleep in rats = details: reported in the literature, ref not given; cited from earlier work

Row | Compound | mice that lost the RR, 10 nmol ([1]; CD-1 mice, N = 8–10 per group) | duration of action on RR (in words) ([1]; mice that lost the RR) | effect in mVD tissues from NOP(−/−) mice (in words) [2] | potency (pEC50) for inhibition of electrically induced contractions ([3]; mVD from CD-1 NOP(+/+) mice, 33 °C, mean (CL95%), 5 experiments) | maximal inhibition of electrically induced contractions ([3]; mVD from CD-1 NOP(+/+) mice, mean ± sem, 5 experiments) [%] | kinetics of action in mVD (in words) ([3]; onset and reversibility upon washout) | induced sleep at EEG recordings (sleep in rats) [h]
1 | nociceptin/orphanin FQ [N/OFQ] | fewer than half | short-lasting action; also recorded: few minutes | completely inactive | 7.59 (7.41–7.77) | 71 ± 4 | fully and rapidly reversible upon washout | 
2 | O=C(O)c1nc2ccccc2n([C@@H]2C[C@H]3CCC[C@@H](C2)N3C2C[C@H]3CCC[C@@H](C2)C3)c1=O (some centres unmarked) [Sunobinop] |  |  |  |  |  |  | 3 to 5
3 | O=C1NCN(c2ccccc2)C12CCN([C@@H]1CC[C@H]3CCCc4cccc1c43)CC2 [Ro 64-6198] |  |  |  |  |  |  | 3 to 5

From publication PMC12621184, “Synthesis and Pharmacological Characterization of Nociceptin/Orphanin FQ Dimeric Ligands” (Journal of Medicinal Chemistry, 2025)
